Source: patent publication US20050209157A1, “Short bioactive peptides and methods for their use” (priority 2001, published 2005)
Where “and” joins values, the source holds several entries; their conditions need not be identical. Equal entries are not always repeated. Where two headings read alike, the source gives them in different places. No end group written: not given here.

Experiments:
[1] = tested on: Pseudomonas aeruginosa H187; assay type: cell-based; conditions: in µg/mL
[2] = tested on: E. coli UB1005; assay type: cell-based, Escherichia coli
[3] = tested on: S. typhimurium 14028S; assay type: cell-based, Salmonella typhimurium
[4] = tested on: P. aeruginosa H374; assay type: cell-based, Pseudomonas aeruginosa; conditions: for MIC P. aeruginosa H374: in µg/mL
[5] = tested on: Candida albicans 105; assay type: cell-based; conditions: Table 13; in µg/mL
[6] = tested on: S. aureus (MRSA); assay type: cell-based, Staphylococcus aureus; conditions: for S. aureus (MRSA) MIC: mean of three, 16 to 20 hours at 35° C.
[7] = tested on: Candida glabrata ATCC15126; assay: Antimicrobial assays II, NCCLS broth microdilution MIC; assay type: cell-based; conditions: Table 13; in µg/mL
[8] = tested on: S. epidermidis C621; assay type: cell-based, Staphylococcus epidermidis; conditions: for S. epidermidis C621 MIC: mean of three, 16 to 20 hours at 35° C.
[9] = tested on: Pseudomonas aeruginosa ATCC 9027; assay: Antimicrobial assay I, MIC by OD measurement; assay type: cell-based; conditions: 37° C. for 24 hours, absorbance 620 nm
[10] = tested on: Staphylococcus aureus ATCC 6538; assay: Antimicrobial assay I, MIC by OD measurement; assay type: cell-based; conditions: 37° C. for 24 hours, absorbance 620 nm
[11] = tested on: P. aeruginosa H374; assay type: cell-based, Pseudomonas aeruginosa; conditions: for MIC Cm-comb.: MIC of chloramphenicol with peptide at ¼ MIC; for MIC Nal-comb.: MIC of nalidixic acid with peptide at ¼ MIC; for FIC Index: 0.5 or less = synergy
Procedure, shortened: (§1)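 FIC index, computed as 0.25 plus the ratio of combination to single-agent antibiotic MIC, defines synergy when 0.5 or below. Peptide fixed at one quarter MIC while chloramphenicol or nalidixic acid was serially diluted two-fold; antibiotic-alone MICs served as baselines.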

[12] = tested on: P. aeruginosa H774; assay type: cell-based, Pseudomonas aeruginosa; conditions: P. aeruginosa H744; nalidixic acid + peptide at ¼ MIC; 0.5 or less = synergy
Procedure, shortened: as §1

[13] = tested on: P. aeruginosa; assay type: cell-based, Pseudomonas aeruginosa; conditions: P. aeruginosa H744; MIC of nalidixic acid with peptide at ¼ MIC
Procedure, shortened: as §1

[14] = tested on: S. pyogenes M76; assay: Antimicrobial assays II, NCCLS broth microdilution MIC; assay type: cell-based, Streptococcus pyogenes; conditions: mean of three; 16 to 20 hours at 35° C.
[15] = tested on: yeast (Saccharomyces cerevisiae); assay: Antimicrobial assay I, yeast assay in RPMI 1640; assay type: cell-based; conditions: RPMI 1640 media
[16] = in vitro; conditions: human, WI38 normal lung fibroblast cells, LD50 WI38, WI38 normal lung fibroblast line, MTT, 24 hours with peptide
[17] = tested on: S. pyogenes ATCC19615; assay: Antimicrobial assays II, NCCLS broth microdilution MIC; assay type: cell-based, Streptococcus pyogenes; conditions: mean of three, in µg/mL
[18] = in vitro; assay type: cell-based, human; conditions: human, human red blood cells, pH 7, hemolytic assay, concentration at 50% hemolysis, 1 hour at 37° C.; read-out: LD50
[19] = tested on: H1299; assay: Anti-cancer assay, MTT, LD50; assay type: cell-based; conditions: 24 hours with peptide, lung large cell carcinoma
Text: (§2) Numbers are LD50 values (μg/mL).

[20] = tested on: PC3; assay: Anti-cancer assay, MTT, LD50; assay type: cell-based; conditions: 24 hours with peptide, prostate adenocarcinoma
Text: as §2

[21] = tested on: HeLaS3; assay: Anti-cancer assay, MTT, LD50; assay type: cell-based; conditions: 24 hours with peptide, cervical carcinoma
Text: as §2

[22] = tested on: SW480; assay: Anti-cancer assay, MTT, LD50; assay type: cell-based; conditions: SW480 colon adenocarcinoma line, 24 hours with peptide
Text: as §2

[23] = tested on: MCF7; assay: Anti-cancer assay, MTT, LD50; assay type: cell-based; conditions: MCF7 breast adenocarcinoma line, MTT, 24 hours with peptide
Text: as §2

[24] = tested on: BMKC; assay: Anti-cancer assay, MTT, LD50; assay type: cell-based; conditions: BMKC cloned melanoma line, 24 hours with peptide
Text: as §2

[25] = tested on: S. pneumoniae C719; assay: Antimicrobial assays II, NCCLS broth microdilution MIC; assay type: cell-based, Streptococcus pneumoniae; conditions: mean of three, in µg/mL
[26] = tested on: S. pneumoniae C718; assay: as above; assay type: cell-based, Streptococcus pneumoniae; conditions: mean of three
[27] = tested on: WI38; conditions: MTT, 24 hours with peptide; normal fibroblast line
[28] = tested on: Pseudomonas aeruginosa 105663; assay type: cell-based; conditions: Table 9; in µg/mL
[29] = tested on: Pseudomonas aeruginosa 100609; assay type: cell-based; conditions: Table 9; in µg/mL
[30] = chloramphenicol + peptide at ¼ MIC
[31] = nalidixic acid + peptide at ¼ MIC, FIC=0.25+MIC comb/MIC alone
[32] = mean of three, 16 to 20 hours at 35° C., in µg/mL

| Compound | paerug9027 (MIC) [9] [µg/mL] | staph6538 (MIC) [10] [µg/mL] | MIC Cm-comb. [11] [µg/mL] | MIC Nal-comb. [11] [µg/mL] | S. pyogenes M76 MIC [14] [µg/mL] | yeast (MIC or MFC) [15] [µg/mL] | CC50 at 24 h [16] [µg/mL] | S. pyogenes MIC [17] | HC50 at 1 h [18] [µg/mL] | H1299 LD50 [19] [µg/mL] | PC3 LD50 [20] [µg/mL] | HeLaS3 LD50 [21] [µg/mL] | LD50 SW480 [22] [µg/mL] | LD50 MCF7 [23] [µg/mL] | LD50 BMKC [24] [µg/mL] | S. pneumoniae MIC [25] | S. aureus (MRSA) MIC [6] [µg/mL] | S. pneumoniae MIC [26] [µg/mL] | WI38 LD50 [27] [µg/mL] | S. epidermidis C621 MIC [8] [µg/mL] | other results |
| --- | --- | --- | --- | --- | --- | --- | --- | --- | --- | --- | --- | --- | --- | --- | --- | --- | --- | --- | --- | --- | --- |
| FAKKFAKKFKKFAKKFAKFAFAF-NH2 [P301 (147)] |  |  |  |  |  |  |  |  |  |  |  |  |  |  |  |  |  |  |  |  | MIC P. aeruginosa H187 ([1]; Table 12): 8; MIC E. coli UB1005 ([2]; Table 12): 8 µg/mL; MIC S. typhimurium 14028S ([3]; Table 12): 8 µg/mL; MIC P. aeruginosa H374 ([4]; Table 12): 4; MIC C. albicans 105 [5]: 32; MIC S. aureus SAP0017 ([6]; Table 13, strain SAP0017, in µg/mL): 8; MIC C. glabrata ATCC15126 [7]: 32; MIC S. epidermis C621 ([8]; Table 13, in µg/mL): 4 |
| FAKKLKKLAKLAKKL-NH2 [P46] | 5 | 10 | 8 | 2500 | 8 | 50 | 200 | 16 | 900 | 290 | 280 | 280 | 160 | 300 | 150 | 128 | 64 | 64 | 200 | 8 | FIC Index [11, 30]: 0.75; FIC Index [11, 31]: 0.75; FIC Index [12]: 1.25; MIC Nal-comb. [13]: 624 µg/mL; E. coli UB1005 MIC [2, 32]: 8 and 4; S. typhimurium 14028S MIC [3, 32]: 16 and 8; P. aeruginosa H374 MIC ([4]; mean of three, 16 to 20 hours at 35° C.): 4 µg/mL |
| FAKLLAKLAKKAL-NH2 [P54, FAKLLAKLAKKAL-NH2] | 50 | 5 | 16 | 5000 | 8 | 50 | 97 | 8 | 250 | 80 | 90 | 190 |  | 60 | 90 | 64 | 16 | 64 | 97 | 8 | FIC Index [11, 30]: 1.25; FIC Index [11, 31]: 1.25; FIC Index [12]: 1.25; MIC Nal-comb. [13]: 624 µg/mL |
| FALALKALKKALKKLKKALKKAL-NH2 [P2 (2)] |  |  |  |  |  |  |  |  |  |  |  |  |  |  |  |  |  |  |  |  | MIC P. aeruginosa H187 ([1]; Table 9): 16; MIC P. aeruginosa Tb 105663 [28]: 16; MIC P. aeruginosa H374 ([4]; Table 9): 16; MIC P. aeruginosa Tb 100609 [29]: 32 |
| FAKLLAKLAKKL-NH2 [P49] | 200 | 10 | 8 | 2500 | 8 | 50 | 135 | 8 | 225 | 140 | 77 |  | 100 | 40 | 115 | 32 | 64 | 64 | 135 | 8 | FIC Index [11, 30]: 0.75; FIC Index [11, 31]: 0.75; FIC Index [12]: 1.25; MIC Nal-comb. [13]: 624 µg/mL |
| FALALKALKKALKKLKKALKKAL-NH2 [P2, reference compound] | 100 | 25 |  |  | 4 | 25 | 66 | 8 | 10 | 140 | 44 | 50 | 46 | 23 | 128 | 32 | 32 | 128 | 66 | 8 |  |
| CC[C@H](C)[C@H](N)C(=O)N[C@@H](CC(C)C)C(=O)N1CCC[C@H]1C(=O)N[C@@H](Cc1c[nH]c2ccccc12)C(=O)N[C@@H](CCCCN)C(=O)N[C@@H](Cc1c[nH]c2ccccc12)C(=O)N1CCC[C@H]1C(=O)N[C@@H](Cc1c[nH]c2ccccc12)C(=O)N[C@@H](Cc1c[nH]c2ccccc12)C(=O)N1CCC[C@H]1C(=O)N[C@@H](Cc1c[nH]c2ccccc12)C(=O)N[C@@H](CCCNC(=N)N)C(=O)N[C@@H](CCCNC(=N)N)C(N)=O [P63, reference compound] |  |  |  |  | 8 |  |  | 8 | 375 | 270 | 290 | 345 | 345 | 64 | 200 | 16 | 32 | 128 |  | 16 |  |
